Experimental data reported in ChEMBL document CHEMBL1201862, “PubChem BioAssay data set” (2004).
Where a name gives a salt, the structure may show the parent alone. Calls of active or inactive are those of the source.

Experiments:
Insulin-degrading enzyme [1] = molecular target: T1, Insulin-degrading enzyme (Homo sapiens, UniProt P14735); assay: activators of recombinant IDE enzyme, dose response, counter-screen for IDE activator project, biochemical, fluorescence polarization (AID 588681)
T1 sequence (P14735 whole entry): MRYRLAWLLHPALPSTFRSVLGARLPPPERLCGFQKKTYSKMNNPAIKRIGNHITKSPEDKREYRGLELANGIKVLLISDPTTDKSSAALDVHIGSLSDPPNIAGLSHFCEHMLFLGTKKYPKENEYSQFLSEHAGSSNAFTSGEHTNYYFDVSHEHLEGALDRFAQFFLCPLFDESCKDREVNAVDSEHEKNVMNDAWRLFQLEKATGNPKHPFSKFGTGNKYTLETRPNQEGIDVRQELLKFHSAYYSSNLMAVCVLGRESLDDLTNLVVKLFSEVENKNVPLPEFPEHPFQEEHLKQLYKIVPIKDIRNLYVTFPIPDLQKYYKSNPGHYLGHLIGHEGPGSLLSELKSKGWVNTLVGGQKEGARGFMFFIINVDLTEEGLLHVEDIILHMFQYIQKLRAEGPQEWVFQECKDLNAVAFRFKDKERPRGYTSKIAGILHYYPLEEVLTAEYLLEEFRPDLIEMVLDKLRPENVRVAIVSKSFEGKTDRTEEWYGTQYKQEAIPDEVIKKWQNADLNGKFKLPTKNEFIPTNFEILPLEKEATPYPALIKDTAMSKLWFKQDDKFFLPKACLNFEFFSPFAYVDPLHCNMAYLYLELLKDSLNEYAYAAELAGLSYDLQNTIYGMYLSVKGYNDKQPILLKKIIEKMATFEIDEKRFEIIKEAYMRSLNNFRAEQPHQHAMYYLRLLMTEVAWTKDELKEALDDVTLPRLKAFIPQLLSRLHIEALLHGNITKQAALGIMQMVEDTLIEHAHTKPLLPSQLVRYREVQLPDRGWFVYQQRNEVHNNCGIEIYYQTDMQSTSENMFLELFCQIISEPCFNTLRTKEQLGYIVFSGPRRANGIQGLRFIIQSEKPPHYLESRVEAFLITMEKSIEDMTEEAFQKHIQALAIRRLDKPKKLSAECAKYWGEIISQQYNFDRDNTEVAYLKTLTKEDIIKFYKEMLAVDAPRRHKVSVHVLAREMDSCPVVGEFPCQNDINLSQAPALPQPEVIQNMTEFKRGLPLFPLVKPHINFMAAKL

Insulin-degrading enzyme [2] = molecular target: T1, Insulin-degrading enzyme; assay: activators of endogenous IDE in HEK cells, dose response, cell-based, fluorescence polarization (AID 588439); assay type: functional
HEK293 [3] = assay: HEK cell cytotoxicity by LDH release, dose response, cytotoxicity control for IDE activator project, fluorescence, HEK cells (AID 588440); assay type: functional, cell-based; conditions: Homo sapiens;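 further: cytotoxicity by LDH release measuring loss of membrane integrity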
HEK293 [4] = assay: optical interference in Abeta FP readout, dose response, artefact control for IDE activator project, biochemical, fluorescence polarization (AID 588442); assay type: functional, cell-based; conditions: Homo sapiens
SUMO-activating enzyme = SUMO-activating enzyme (Homo sapiens, UniProt Q9UBT2); assay: inhibitors of in vitro SUMOylation cascade, primary screen, biochemical, HTRF, uHTS (AID 2006); assay type: protein-complex assay
SUMO-activating enzyme, sequence (Q9UBE0 whole entry): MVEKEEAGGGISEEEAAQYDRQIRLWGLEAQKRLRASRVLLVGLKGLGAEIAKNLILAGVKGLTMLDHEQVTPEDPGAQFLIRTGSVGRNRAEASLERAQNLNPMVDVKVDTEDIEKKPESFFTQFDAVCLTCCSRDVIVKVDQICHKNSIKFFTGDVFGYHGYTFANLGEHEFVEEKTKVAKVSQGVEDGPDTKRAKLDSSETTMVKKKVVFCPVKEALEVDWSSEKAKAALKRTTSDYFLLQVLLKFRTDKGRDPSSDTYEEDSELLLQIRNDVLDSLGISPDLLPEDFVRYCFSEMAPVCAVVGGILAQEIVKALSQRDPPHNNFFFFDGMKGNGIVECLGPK
SUMO-activating enzyme, sequence (Q9UBT2 whole entry): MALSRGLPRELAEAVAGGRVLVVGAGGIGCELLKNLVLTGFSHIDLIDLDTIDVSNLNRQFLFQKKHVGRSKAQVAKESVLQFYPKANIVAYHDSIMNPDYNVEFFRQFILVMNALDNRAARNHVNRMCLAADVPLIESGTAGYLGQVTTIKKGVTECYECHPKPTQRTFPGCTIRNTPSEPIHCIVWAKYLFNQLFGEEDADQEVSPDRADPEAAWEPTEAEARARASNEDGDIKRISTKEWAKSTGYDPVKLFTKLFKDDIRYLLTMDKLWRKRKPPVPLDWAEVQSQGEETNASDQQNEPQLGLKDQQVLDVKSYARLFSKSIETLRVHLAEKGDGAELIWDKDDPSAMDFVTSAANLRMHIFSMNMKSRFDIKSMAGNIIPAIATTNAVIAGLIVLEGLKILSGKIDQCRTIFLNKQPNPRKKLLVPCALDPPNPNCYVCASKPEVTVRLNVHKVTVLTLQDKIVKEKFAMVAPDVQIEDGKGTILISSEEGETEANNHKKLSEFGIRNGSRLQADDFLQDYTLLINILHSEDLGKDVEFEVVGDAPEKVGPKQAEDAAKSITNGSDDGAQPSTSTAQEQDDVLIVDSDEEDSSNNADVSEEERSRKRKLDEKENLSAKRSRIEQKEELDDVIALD

[5] = molecular target: 26S proteasome non-ATPase regulatory subunit 14 (Homo sapiens, UniProt O00487); assay: inhibition of proteasome subunit RPN11 – biochemical, fluorescence polarization, uHTS hits, confirmation (AID 602368); assay type: functional
26S proteasome non-ATPase regulatory subunit 14, sequence (O00487 whole entry): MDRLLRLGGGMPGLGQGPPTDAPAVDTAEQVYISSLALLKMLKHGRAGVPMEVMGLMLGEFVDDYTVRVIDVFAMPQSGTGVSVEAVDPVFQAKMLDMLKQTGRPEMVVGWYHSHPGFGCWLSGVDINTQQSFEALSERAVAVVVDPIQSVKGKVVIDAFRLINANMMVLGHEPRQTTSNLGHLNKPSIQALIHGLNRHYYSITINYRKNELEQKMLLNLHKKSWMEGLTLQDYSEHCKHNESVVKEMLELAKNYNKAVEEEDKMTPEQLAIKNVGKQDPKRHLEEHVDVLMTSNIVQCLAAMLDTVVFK

[6] = molecular target: 72 kDa type IV collagenase (Homo sapiens, UniProt P08253); assay: Dose Response validation of uHTS RPN11 inhibitor hits using a MMP-2 Fluorescence assay.; assay type: functional
72 kDa type IV collagenase, sequence (P08253 whole entry): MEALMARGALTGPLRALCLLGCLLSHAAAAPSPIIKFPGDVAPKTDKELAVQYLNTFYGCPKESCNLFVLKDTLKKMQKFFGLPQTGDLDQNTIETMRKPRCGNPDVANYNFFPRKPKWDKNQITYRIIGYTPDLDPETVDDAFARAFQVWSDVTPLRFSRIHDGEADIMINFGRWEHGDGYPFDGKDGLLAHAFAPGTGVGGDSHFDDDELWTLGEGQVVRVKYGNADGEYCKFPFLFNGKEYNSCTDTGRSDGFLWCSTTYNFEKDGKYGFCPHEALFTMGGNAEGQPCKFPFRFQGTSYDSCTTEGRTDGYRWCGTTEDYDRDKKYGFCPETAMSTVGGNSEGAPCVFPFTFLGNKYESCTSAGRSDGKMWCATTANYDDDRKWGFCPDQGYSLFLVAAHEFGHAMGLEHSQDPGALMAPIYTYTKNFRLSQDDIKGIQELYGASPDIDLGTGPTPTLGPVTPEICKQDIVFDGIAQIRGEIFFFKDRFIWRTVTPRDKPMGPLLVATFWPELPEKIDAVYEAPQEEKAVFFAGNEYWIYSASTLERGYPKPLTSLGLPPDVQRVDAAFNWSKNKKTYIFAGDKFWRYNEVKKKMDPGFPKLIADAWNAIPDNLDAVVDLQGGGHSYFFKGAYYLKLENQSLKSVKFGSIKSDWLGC

Prothrombin = Prothrombin (Bos taurus, UniProt P00735); assay: thrombin inhibition, dose response, biochemical, fluorescence polarization, uHTS hits (AID 602369); assay type: functional
Bcl-2-related protein A1 = molecular target: T2, Bcl-2-related protein A1 (Mus musculus, UniProt Q07440); assay type: functional;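 further: confirmatory dose–response counterscreen on Bfl-1, used to check hits from a UBC13 polyubiquitin inhibitor campaign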
T2 sequence (Q07440 whole entry): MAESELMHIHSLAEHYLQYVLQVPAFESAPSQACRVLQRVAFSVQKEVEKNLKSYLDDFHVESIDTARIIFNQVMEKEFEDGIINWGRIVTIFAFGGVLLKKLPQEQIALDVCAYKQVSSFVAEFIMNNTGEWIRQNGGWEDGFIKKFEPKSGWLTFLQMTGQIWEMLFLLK

[7] = molecular target: T3, Ubiquitin-conjugating enzyme E2 N (Homo sapiens, UniProt P61088); assay type: functional
T3 sequence (P61088 whole entry): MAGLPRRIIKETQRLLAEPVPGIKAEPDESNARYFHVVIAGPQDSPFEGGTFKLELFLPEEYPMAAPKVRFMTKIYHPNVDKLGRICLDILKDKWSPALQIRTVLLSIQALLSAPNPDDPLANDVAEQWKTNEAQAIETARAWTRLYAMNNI

[8] = molecular target: T3, Ubiquitin-conjugating enzyme E2 N; assay type: functional; remark: listed apart in the source
[9] = molecular target: T4, Apoptotic protease-activating factor 1 (Homo sapiens, UniProt O14727); assay type: functional
T4 sequence (O14727 whole entry): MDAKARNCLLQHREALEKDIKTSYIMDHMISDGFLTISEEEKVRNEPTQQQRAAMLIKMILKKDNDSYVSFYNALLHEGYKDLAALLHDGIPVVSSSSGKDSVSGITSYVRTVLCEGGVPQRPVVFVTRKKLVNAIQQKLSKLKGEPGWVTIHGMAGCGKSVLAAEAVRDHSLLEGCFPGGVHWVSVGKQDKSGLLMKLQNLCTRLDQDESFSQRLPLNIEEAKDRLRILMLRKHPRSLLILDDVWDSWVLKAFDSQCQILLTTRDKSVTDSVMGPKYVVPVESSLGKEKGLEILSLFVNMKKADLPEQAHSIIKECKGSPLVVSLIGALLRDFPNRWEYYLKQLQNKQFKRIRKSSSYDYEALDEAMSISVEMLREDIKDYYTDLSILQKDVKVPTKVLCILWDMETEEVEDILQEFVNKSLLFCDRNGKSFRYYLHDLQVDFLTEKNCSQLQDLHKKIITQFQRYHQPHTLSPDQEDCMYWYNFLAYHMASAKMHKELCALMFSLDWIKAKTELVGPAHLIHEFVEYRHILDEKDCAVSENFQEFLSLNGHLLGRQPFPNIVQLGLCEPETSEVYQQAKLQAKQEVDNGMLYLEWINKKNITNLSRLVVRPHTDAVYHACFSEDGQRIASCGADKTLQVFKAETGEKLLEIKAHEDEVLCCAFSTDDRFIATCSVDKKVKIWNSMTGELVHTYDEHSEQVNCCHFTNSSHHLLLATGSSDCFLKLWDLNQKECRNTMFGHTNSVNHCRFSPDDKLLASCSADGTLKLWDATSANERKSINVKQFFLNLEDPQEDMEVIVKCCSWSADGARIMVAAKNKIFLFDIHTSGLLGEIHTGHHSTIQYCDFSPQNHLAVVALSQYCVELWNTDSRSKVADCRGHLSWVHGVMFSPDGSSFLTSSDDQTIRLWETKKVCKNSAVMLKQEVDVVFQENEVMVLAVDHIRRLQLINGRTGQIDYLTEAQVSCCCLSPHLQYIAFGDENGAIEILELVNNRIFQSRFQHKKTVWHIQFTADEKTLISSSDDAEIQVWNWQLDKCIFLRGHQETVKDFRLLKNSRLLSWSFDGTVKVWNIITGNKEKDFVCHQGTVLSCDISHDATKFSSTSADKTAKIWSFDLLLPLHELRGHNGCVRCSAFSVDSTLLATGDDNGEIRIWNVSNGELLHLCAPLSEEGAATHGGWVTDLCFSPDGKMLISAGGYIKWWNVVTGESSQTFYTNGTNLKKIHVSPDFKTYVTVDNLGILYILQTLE

[10] = Luminescence Cell-Based Dose Retest to Confirm Inhibitors of Cancer Stem Cells. [Related pubchem assays (depositor defined):AID2717, AID2721]; assay type: functional; conditions: Homo sapiens
[11] = molecular target: Neurotensin receptor type 1 (Homo sapiens, UniProt P30989); assay type: functional;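 further: Image-based confirmatory dose-response assay measuring agonist activity at NTR1; NTR1-expressing U2OS osteosarcoma cells imaged for beta-arrestin GFP spot formation; agonist potency where compounds increase beta-arrestin recruitment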
Neurotensin receptor type 1, sequence (P30989 whole entry): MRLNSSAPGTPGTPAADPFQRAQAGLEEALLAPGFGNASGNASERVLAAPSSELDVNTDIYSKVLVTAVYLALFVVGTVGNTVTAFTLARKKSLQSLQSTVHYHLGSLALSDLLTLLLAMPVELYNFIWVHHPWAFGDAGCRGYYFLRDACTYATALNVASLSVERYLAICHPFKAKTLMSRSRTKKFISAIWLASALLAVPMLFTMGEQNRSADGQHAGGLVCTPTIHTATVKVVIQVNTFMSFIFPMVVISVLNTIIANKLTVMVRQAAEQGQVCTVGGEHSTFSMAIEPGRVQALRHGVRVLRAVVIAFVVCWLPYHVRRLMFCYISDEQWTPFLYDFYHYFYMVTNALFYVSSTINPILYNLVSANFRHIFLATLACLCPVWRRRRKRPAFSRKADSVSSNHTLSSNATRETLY

[12] = cytotoxicity in HEK-293T cells, dose response, cytotoxicity control for BCR NF-kB inhibitor project, luminescence, B-cell screen hits (AID 489021); assay type: functional, cell-based;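 further: HEK-293T cells carrying an NF-kB luciferase reporter; cells exposed to compound for about 14 hours before viability readout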
HEK293 [13] = assay: inhibitors of LMP1-driven NF-kB reporter, dose response, cell-based, HEK293, luciferase, cherry-pick (AID 588343); assay type: functional; conditions: Homo sapiens
INS1 = assay: beta cell apoptosis inhibitors, cytokine rescue, dose response, luminescence, retest (AID 449756); assay type: functional, cell-based; conditions: Rattus norvegicus;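 further: cell death triggered by IL-1 beta plus TNF-alpha plus IFN-gamma mixture; protective hits raise ATP signal compared with cytokine alone wells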
Melanocortin receptor 4 = Melanocortin receptor 4 (Homo sapiens, UniProt P32245); assay: MC4R antagonist potency on cAMP, dose response, cell-based, TR-FRET, biased antagonists (AID 602298); assay type: functional;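 further: antagonist potency against agonist-stimulated cAMP production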
Melanocortin receptor 4, sequence (P32245 whole entry): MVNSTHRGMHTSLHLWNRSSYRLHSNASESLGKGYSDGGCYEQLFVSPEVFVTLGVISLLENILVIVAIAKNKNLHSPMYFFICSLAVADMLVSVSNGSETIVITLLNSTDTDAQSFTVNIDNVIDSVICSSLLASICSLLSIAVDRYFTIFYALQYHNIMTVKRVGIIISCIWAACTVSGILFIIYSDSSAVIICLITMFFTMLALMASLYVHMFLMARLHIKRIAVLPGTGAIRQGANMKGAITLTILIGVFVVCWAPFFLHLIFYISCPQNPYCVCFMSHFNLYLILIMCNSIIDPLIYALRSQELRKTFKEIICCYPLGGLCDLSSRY

[14] = nonselective inhibitors of cellular cAMP signaling, dose response, counter-screen for MC4R biased antagonist project, cell-based, TR-FRET cAMP detection (AID 602305); assay type: functional;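 further: U2OS cells stimulated with forskolin near its EC80 as the cAMP inducer; potency is for inhibition of forskolin-stimulated cAMP signaling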

O=C(NCCSc1ccc(Br)cc1)c1ccc2[nH]cnc2c1
EC50 (Insulin-degrading enzyme [1]): > 54.7 µM (inactive) | EC50 (Insulin-degrading enzyme [2]): > 54.7 µM (inactive) | IC50 (HEK293 [3]): > 89.3 µM (inactive) | EC50 (HEK293 [4]): > 56 µM (inactive)

Sc1nnc(-c2cc(-c3ccccc3)[nH]n2)n1/N=C/c1ccc(Cl)c(Cl)c1
IC50 (SUMO-activating enzyme): 49.8 µM (active) | IC50 [5]: 8.54 µM (active) | IC50 [6]: > 100 µM (inactive) | IC50 (Prothrombin): > 100 µM (inactive)

C#CCOCCOCCOCCNc1nc(N2CCN(C(=O)CCCCCCCCCCNC(=O)Cn3cc(CCCCCN)nn3)CC2)nc(N2CCN(C(=O)CCCCCCCCCCNC(=O)[C@@H]([C@H](C)O)n3cc(C)nn3)CC2)n1
IC50 (Bcl-2-related protein A1): > 20 µM (inactive) | IC50 [7]: 10.7 µM (active) | IC50 [8]: 6.62 µM (active) | EC50 (Insulin-degrading enzyme [1]): > 54.7 µM (inactive) | IC50 [9]: 36.7 µM (active) | EC50 (Insulin-degrading enzyme [2]): > 6.07 µM (active) | IC50 (HEK293 [3]): 17.8 µM (inactive) | EC50 (HEK293 [4]): > 54.7 µM (inactive)

CNC(=O)c1cc(Oc2ccc(NC(=O)Nc3ccc(Cl)c(C(F)(F)F)c3)cc2)ccn1 [SORAFENIB TOSYLATE]
AC50 [10]: 2.04 µM (active) | EC50 [11]: 14.6 µM (active) | IC50 [12]: 70.6 µM (inactive) | AC50 (HEK293 [13]): 1.6 µM (active) | AC50 (INS1): 6.78 µM (active) | IC50 (Melanocortin receptor 4): 4.48 µM (active) | IC50 [14]: > 64.6 µM (inactive)
